Converted amounts (≈) assume the structure as drawn. The source made the active and inactive calls. No cut-off for these calls is given here.
target: T1, Sodium channel protein type 10 subunit alpha (Homo sapiens, UniProt Q9Y5Y9); assay: Inhibition of Nav1.8 (unknown origin) over expressed in HEK cells assessed as reduction in deltamethrin-stimulated channel activation by FLIPR assay; type: cell-based; settings: not given
Target sequence in this assay (Q9Y5Y9 whole entry): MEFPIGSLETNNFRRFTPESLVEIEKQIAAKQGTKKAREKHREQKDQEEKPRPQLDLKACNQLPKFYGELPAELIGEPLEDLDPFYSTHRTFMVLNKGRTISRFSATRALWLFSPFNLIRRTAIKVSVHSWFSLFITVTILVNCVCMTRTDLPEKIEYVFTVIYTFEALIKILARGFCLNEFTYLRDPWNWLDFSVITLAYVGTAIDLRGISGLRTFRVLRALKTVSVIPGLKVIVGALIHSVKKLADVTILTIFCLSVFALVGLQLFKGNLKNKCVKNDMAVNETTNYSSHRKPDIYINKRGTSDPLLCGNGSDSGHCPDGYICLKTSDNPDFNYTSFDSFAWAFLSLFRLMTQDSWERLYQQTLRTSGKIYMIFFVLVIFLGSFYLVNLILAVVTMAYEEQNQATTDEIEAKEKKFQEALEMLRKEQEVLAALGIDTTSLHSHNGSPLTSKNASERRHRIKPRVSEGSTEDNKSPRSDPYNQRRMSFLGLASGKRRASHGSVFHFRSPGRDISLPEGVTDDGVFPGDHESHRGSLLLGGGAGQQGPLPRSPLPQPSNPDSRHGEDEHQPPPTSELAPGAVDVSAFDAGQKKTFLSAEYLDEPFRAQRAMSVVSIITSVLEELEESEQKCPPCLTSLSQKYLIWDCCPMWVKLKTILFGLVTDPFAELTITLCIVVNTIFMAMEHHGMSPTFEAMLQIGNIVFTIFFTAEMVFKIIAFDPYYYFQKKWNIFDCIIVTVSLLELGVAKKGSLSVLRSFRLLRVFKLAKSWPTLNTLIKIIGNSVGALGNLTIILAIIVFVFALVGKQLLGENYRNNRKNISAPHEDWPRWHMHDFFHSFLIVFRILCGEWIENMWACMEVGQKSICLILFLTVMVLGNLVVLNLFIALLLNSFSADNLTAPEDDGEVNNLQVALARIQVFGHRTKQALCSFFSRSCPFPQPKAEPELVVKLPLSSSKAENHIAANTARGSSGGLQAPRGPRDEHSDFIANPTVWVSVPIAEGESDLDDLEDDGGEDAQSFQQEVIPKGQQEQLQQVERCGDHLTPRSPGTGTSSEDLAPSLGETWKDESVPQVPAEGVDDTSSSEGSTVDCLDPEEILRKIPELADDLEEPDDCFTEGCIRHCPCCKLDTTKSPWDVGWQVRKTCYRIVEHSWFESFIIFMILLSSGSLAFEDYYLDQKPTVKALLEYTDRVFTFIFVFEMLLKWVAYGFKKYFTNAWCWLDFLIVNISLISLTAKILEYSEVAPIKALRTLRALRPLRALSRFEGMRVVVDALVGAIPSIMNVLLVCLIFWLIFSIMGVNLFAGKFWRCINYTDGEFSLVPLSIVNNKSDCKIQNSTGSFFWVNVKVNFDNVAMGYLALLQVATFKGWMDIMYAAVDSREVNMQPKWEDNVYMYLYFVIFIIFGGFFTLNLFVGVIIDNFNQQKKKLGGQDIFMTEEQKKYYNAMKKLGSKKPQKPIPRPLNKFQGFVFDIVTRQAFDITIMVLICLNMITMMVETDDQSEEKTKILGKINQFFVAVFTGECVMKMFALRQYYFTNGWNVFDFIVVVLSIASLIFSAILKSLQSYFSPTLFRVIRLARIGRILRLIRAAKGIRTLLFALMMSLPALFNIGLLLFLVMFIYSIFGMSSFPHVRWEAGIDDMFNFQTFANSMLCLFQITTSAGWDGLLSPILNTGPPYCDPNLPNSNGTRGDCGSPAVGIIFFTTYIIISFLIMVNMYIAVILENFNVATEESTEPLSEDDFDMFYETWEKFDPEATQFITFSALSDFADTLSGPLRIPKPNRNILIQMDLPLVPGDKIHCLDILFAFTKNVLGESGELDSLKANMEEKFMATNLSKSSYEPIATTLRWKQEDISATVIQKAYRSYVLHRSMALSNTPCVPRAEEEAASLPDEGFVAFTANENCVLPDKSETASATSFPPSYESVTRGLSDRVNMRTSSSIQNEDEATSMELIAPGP

| IC50 | SMILES |
| --- | --- |
| 92 nM | COc1cc(F)ccc1Oc1cc(C(F)(F)F)ncc1C(=O)Nc1cccc(S(C)(=O)=O)c1 |
| 240 nM | COc1cc(F)ccc1Oc1ncc(C(F)(F)F)cc1C(=O)Nc1ccncn1 |
| 1100 nM | COc1cc(F)ccc1Oc1ncc(C(F)(F)F)cc1C(=O)Nc1ccc[n+]([O-])c1 |
| 120 nM | Cc1cc(F)ccc1Oc1ncc(C(F)(F)F)cc1C(=O)Nc1cccc(S(C)(=O)=O)c1 |

target: T1, Sodium channel protein type 10 subunit alpha; assay: Inhibition of human Nav1.8 with resting membrane potential at half inactivated state by PatchXpress high-throughput electrophysiology method; settings: not given
Target sequence in this assay (Q9Y5Y9 whole entry): as above

| IC50 | SMILES |
| --- | --- |
| > 10000 nM | COc1cc(F)ccc1Oc1nc(C(F)(F)F)ncc1C(=O)Nc1cccc(S(C)(=O)=O)c1 |
| 40 nM | COc1cc(F)ccc1Oc1ncc(C(F)(F)F)cc1C(=O)Nc1cccc([S+](C)[O-])c1 (stereo not given) |
| > 10000 nM | COc1cc(F)ccc1Oc1nccnc1C(=O)Nc1cccc(S(C)(=O)=O)c1 |
| > 10000 nM | COc1cc(F)ccc1Oc1ncccc1C(=O)Nc1cccc(S(C)(=O)=O)c1 |
| > 10000 nM | CC(C)Oc1ncc(C(F)(F)F)cc1C(=O)Nc1cccc(S(C)(=O)=O)c1 |
| 32 nM | COc1cc(F)ccc1Oc1cc(C(F)(F)F)ncc1C(=O)Nc1cccc(S(C)(=O)=O)c1 |

target: T1, Sodium channel protein type 10 subunit alpha; assay: Inhibition of Nav1.8 (unknown origin) at 10 uM by Ionflux high-throughput automated patch method; settings: not given
Target sequence in this assay (Q9Y5Y9 whole entry, looked up): as the sequence (Q9Y5Y9 whole entry) above

| inhibition | SMILES |
| --- | --- |
| inactive | COc1cc(F)ccc1Oc1nc(C(F)(F)F)ncc1C(=O)Nc1cccc(S(C)(=O)=O)c1 |
| Active | COc1cc(F)ccc1Oc1ncc(C(F)(F)F)cc1C(=O)Nc1cccc([S+](C)[O-])c1 (stereo not given) |
| inactive | COc1cc(F)ccc1Oc1nccnc1C(=O)Nc1cccc(S(C)(=O)=O)c1 |
| inactive | COc1cc(F)ccc1Oc1ncccc1C(=O)Nc1cccc(S(C)(=O)=O)c1 |
| inactive | CC(C)Oc1ncc(C(F)(F)F)cc1C(=O)Nc1cccc(S(C)(=O)=O)c1 |
| Active | COc1cc(F)ccc1Oc1cc(C(F)(F)F)ncc1C(=O)Nc1cccc(S(C)(=O)=O)c1 |
| Active | COc1cc(F)ccc1Oc1ncc(C(F)(F)F)cc1C(=O)Nc1ccncn1 |
| Active | COc1cc(F)ccc1Oc1ncc(C(F)(F)F)cc1C(=O)Nc1ccc[n+]([O-])c1 |
| Active | Cc1cc(F)ccc1Oc1ncc(C(F)(F)F)cc1C(=O)Nc1cccc(S(C)(=O)=O)c1 |

test system: not listed separately; assay: Kinetic solubility of the compound in pH 7.4 phosphate buffered saline measured after 2 hrs by LC/MS analysis; type: physicochemical; settings: read-out: Kinetic_solubility

| solubility kinetic at 2 h | SMILES |
| --- | --- |
| 128 µg/mL (≈ 302 µM) | COc1cc(F)ccc1Oc1ncc(C(F)(F)F)cc1C(=O)Nc1ccc[n+]([O-])c1 |
